Experiment [1] in a line: Hargreaves test for analgesia. The following applies: rat, intrathecal morphine 15 μg plus vehicle, P < 0.05.
Experiment [2] has as its target T1, TLR4 (Mus musculus, UniProt Q9JHF9+Q9QUK6).
T1 sequence (Q9QUK6 26-835): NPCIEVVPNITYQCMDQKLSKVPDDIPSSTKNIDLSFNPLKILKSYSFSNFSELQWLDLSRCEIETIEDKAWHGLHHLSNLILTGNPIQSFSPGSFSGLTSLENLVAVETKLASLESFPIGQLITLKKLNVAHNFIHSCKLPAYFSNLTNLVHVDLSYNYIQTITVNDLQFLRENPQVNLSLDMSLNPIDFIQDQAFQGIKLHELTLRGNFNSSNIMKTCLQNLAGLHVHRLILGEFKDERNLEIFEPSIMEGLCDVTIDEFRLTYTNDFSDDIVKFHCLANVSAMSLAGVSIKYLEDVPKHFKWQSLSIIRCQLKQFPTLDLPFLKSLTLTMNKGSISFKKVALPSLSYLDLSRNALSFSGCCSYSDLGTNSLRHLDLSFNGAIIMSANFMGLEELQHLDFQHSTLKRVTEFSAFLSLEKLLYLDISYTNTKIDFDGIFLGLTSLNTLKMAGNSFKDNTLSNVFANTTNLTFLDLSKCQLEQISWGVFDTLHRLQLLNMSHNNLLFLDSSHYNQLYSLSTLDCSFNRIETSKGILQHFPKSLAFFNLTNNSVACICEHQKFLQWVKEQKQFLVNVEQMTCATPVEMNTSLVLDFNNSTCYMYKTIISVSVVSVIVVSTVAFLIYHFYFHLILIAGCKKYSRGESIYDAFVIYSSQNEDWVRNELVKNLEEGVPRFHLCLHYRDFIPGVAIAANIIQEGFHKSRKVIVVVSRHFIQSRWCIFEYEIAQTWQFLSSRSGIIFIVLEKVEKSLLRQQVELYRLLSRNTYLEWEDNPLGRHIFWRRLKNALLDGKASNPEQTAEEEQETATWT
T1 sequence (Q9JHF9 19-160): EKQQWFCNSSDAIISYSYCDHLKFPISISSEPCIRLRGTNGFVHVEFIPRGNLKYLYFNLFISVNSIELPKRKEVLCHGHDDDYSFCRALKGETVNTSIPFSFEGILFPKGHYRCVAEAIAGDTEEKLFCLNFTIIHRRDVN

Structures are written as SMILES.

For the compound `CN1CC[C@]23c4c5ccc(O)c4O[C@H]2[C@@H](O)C=C[C@H]3[C@H]1C5` [morphine], the “analgesia to radiant heat compared to baseline” value in experiment [1] is given as “produced significant analgesia to radiant heat”.

As for `O=C1CC[C@]2(O)[C@@H]3Cc4ccc(O)c5c4[C@]2(CCN3CCc2ccccc2)[C@@H]1O5` [1j, (4S,4aR,7aS,12bR)-4a,9-Dihydroxy-3-phenethyl-2,3,4,4a,5,6-hexahydro-1H-4,12-methanobenzofuro[3,2-e]isoquinolin-7(7aH)-one], in experiment [2] (IC50 of viability / IC50 of NO), the “ratio of cell viability IC50 (cytotoxicity) to TLR4 antagonist activity” value is on record as ~ 100. In experiment [2] (relative to (+)-naltrexone 1a, NO assay in BV-2 cells), the “TLR4 antagonist activity, times better than (+)-naltrexone” value is ~ 75 fold.

(Values after publication PMC4634939 (Journal of medicinal chemistry, 2015).)
